Experimental data as given in PMC6946680, “Modulation of brain cation-Cl^− cotransport via the SPAK kinase inhibitor ZT-1a” (Nature Communications, 2020).
Values joined by “and” are separate entries in the source; they are usually repeats but may differ in a detail not shown here. Equal values may be shown once.

Tests used:
Type in all cases: cell-based, human
[1] = system: KCC3 pThr1048; assay: Immunoblot of KCC site 2 phosphorylation (KCC3 Thr1048) in HEK-293 cells transfected with FLAG-KCC3
[2] = system: SPAK pSer373; assay: Immunoblot of SPAK/OSR1 p-Ser373/Ser325 in HEK-293 cells
Method: (§1) Band intensities were quantitated with ImageJ software. ***p < 0.001; **p < 0.01; *p < 0.05; ns, nonsignificant [by one-way ANOVA with post hoc testing (n = 6, error bars represent the mean ± SEM)].
(§2) Thirty-six hours post transfection, cells were stimulated with either control isotonic or hypotonic medium for a period of 30 min. […] Protein concentrations were determined using the Bradford method. Cells were treated with the indicated concentrations of the SPAK/OSR1 inhibitors.

[3] = system: KCC3 pThr991; assay: Immunoblot of KCC site 1 phosphorylation (KCC3 Thr991) in HEK-293 cells transfected with FLAG-KCC3
[4] = system: NKCC1 pThr203/207/212; assay: Immunoblot of NKCC1 p-Thr203/Thr207/Thr212 in HEK-293 cells
Method: as §1, §2

[5] = Hypotonic low Cl, compound concentration 1 (unit not given)
[6] = Hypotonic low Cl, compound concentration 3 (unit not given)
[7] = Hypotonic low Cl, compound concentration 10 (unit not given)
[8] = Isotonic control, compound concentration 1 (unit not given)
[9] = Isotonic control, compound concentration 3 (unit not given)
[10] = Isotonic control, compound concentration 10 (unit not given)

Row | Structure (SMILES) | Site-2 phospho / KCC [1, 5] | Site-2 phospho / KCC [1, 6] | Site-2 phospho / KCC [1, 7] | Site-2 phospho / KCC [1, 8] | Site-2 phospho / KCC [1, 9] | Site-2 phospho / KCC [1, 10] | pSer373 / SPAK [2, 5] | pSer373 / SPAK [2, 6] | pSer373 / SPAK [2, 7] | pSer373 / SPAK [2, 8] | pSer373 / SPAK [2, 9] | pSer373 / SPAK [2, 10] | Site-1 phospho / KCC [3, 5] | Site-1 phospho / KCC [3, 6] | Site-1 phospho / KCC [3, 7] | Site-1 phospho / KCC [3, 8] | Site-1 phospho / KCC [3, 9] | Site-1 phospho / KCC [3, 10] | pThrNKCC1 / NKCC1 [4, 5] | pThrNKCC1 / NKCC1 [4, 6] | also measured
1 | Cc1cc(C(C#N)c2ccc(Cl)cc2)c(Cl)cc1NC(=O)c1ccccc1O (centres unmarked) [ZT-1b] | 0.289 and 0.263 and 0.271 and 0.25 | 0.156 and 0.183 and 0.172 and 0.162 | 0.033 and 0.041 and 0.022 and 0.031 | 0.184 and 0.212 and 0.196 and 0.205 | 0.112 and 0.132 and 0.126 and 0.115 | 0.042 and 0.039 and 0.061 and 0.053 | 0.301 and 0.286 and 0.291 and 0.316 | 0.183 and 0.156 and 0.163 and 0.175 | 0.078 and 0.061 and 0.055 and 0.065 | 0.103 and 0.127 and 0.137 and 0.117 | 0.087 and 0.09 and 0.06 and 0.076 | 0.055 and 0.039 and 0.041 and 0.047 | 0.297 and 0.278 and 0.267 and 0.28 | 0.255 and 0.247 and 0.261 and 0.237 | 0.022 and 0.031 and 0.029 and 0.035 | 0.198 and 0.201 and 0.187 and 0.21 | 0.167 and 0.17 and 0.155 and 0.16 | 0.095 and 0.121 and 0.114 and 0.104 | 0.309 and 0.287 and 0.264 and 0.27 | 0.122 and 0.114 and 0.1313 and 0.117 | pThrNKCC1 / NKCC1 [4, 7]: 0.011 and 0.0109 and 0.016 and 0.013; pThrNKCC1 / NKCC1 [4, 8]: 0.127 and 0.118 and 0.126 and 0.123; pThrNKCC1 / NKCC1 [4, 9]: 0.034 and 0.041 and 0.048 and 0.043; pThrNKCC1 / NKCC1 [4, 10]: 0.009 and 0.007 and 0.005 and 0.006
2 | Cc1cc(C(C#N)c2ccc(Cl)cc2)c(Cl)cc1NC(=O)c1ccccc1S (centres unmarked) [ZT-1c] | 0.497 and 0.455 and 0.548 and 0.508 | 0.209 and 0.276 and 0.192 and 0.234 | 0.048 and 0.058 and 0.04 and 0.032 | 0.476 and 0.401 and 0.516 and 0.551 | 0.214 and 0.265 and 0.187 and 0.198 | 0.065 and 0.051 and 0.044 and 0.058 | 0.203 and 0.196 and 0.2213 and 0.215 | 0.112 and 0.125 and 0.103 and 0.117 | 0.032 and 0.051 and 0.046 and 0.039 | 0.122 and 0.112 and 0.129 and 0.116 | 0.075 and 0.062 and 0.048 and 0.057 | 0.036 and 0.024 and 0.031 and 0.029 | 1.35 and 1.471 and 1.65 and 1.51 | 1.55 and 1.21 and 1.48 and 1.3 | 1.012 and 0.998 and 0.867 and 0.921 | 1.231 and 1.321 and 1.543 and 1.43 | 1.091 and 0.991 and 0.86 and 0.91 | 0.761 and 0.69 and 0.81 and 0.61 | 1.123 and 1.265 and 1.316 and 1.19 | 0.587 and 0.521 and 0.402 and 0.467 | pThrNKCC1 / NKCC1 [4, 7]: 0.215 and 0.209 and 0.187 and 0.193; pThrNKCC1 / NKCC1 [4, 8]: 0.43 and 0.561 and 0.501 and 0.592; pThrNKCC1 / NKCC1 [4, 10]: 0.05 and 0.036 and 0.066 and 0.049
